pKi: −log10 of the molar value.
Assays:
[1] = target: Carbonic anhydrase 2 (Homo sapiens, UniProt P00918); assay: Inhibition of human carbonic anhydrase 2 using 4-nitrophenylacetate as substrate after 3 mins by spectrophotometric analysis
[2] = target: Carbonic anhydrase 1 (Homo sapiens, UniProt P00915); assay: Inhibition of human carbonic anhydrase 1 using 4-nitrophenylacetate as substrate after 3 mins by spectrophotometric analysis
Chain of Carbonic anhydrase 1 (P00915 whole entry): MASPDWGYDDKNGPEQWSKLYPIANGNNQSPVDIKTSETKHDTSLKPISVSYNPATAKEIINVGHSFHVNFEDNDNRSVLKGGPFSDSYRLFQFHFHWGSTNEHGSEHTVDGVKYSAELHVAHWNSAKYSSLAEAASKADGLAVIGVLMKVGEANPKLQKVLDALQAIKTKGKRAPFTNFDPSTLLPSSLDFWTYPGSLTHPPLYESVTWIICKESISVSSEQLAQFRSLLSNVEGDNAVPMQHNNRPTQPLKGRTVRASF

Row | pKi [1] | pKi [2] | SMILES
1 | 6.77 | 4.37 | c1ccc2c(c1)c1c(n2Cc2ccc(Cn3c4c(c5ccccc53)CCC4)cc2)CCC1
2 | 6.60 | 4.41 | c1ccc2c(c1)c1c(n2Cc2ccc(Cn3c4c(c5ccccc53)CCCC4)cc2)CCCC1
3 | 6.54 | 4.38 | c1ccc2c(c1)c1c(n2Cc2ccc(Cn3c4c(c5ccccc53)CCCCC4)cc2)CCCCC1

Source: ChEMBL document CHEMBL2331190, “Synthesis of 1,4-bis(indolin-1-ylmethyl)benzene derivatives and their structure-activity relationships for the interaction of human carbonic anhydrase isoforms I and II” (Bioorg Med Chem, 2013)
